Common to all, as to assay: Kinetics of amidolytic activity on S-2444 (Lineweaver-Burk)
Common to all, as to format: biochemical
What all share (conditions): pH 8.8 and 37°C

Test [1] has as its target plasmin-activated RSV-CHO-scu-PA (recombinant human uPA from RSV-uPA transfected CHO cells) (Homo sapiens, UniProt P00749). As to the method:
(§1) The fibrinolytic assay is carried out by the fibrin plate method (Astrup T., Mullertz S., The fibrin plate method for estimating fibrinolytic activity, Arch Biochem Biophys 1952, 40:346-351). Urokinase reference standard is used to calibrate each assay. Activity is measured in International Units (I.U.) relative to the International Reference Preparation as the primary standard. sc-uPA (cell produced single chain urokinase) fibrinolytic latent activity is determined after activation as follows: plasmin (10 mg) is coupled with CNBr-activated Sepharose (cross-linked agarose) (2.5 ml) using 0.5 M sodium carbonate buffer as the coupling buffer. A 1:10 suspension of plasmin-agarose (0.9 ml) in 0.15 M sodium chloride, 0.05 M sodium phosphate buffer pH 7.4 is mixed with sc-uPA samples (0.1 ml) and gently rotated for 1 h at 20°C. Plasmin-agarose is removed by centrifugation 2 min at 10000 x g and the supernatant tested by the fibrin plate assay. Protein concentrations were measured according to the method of Lowry (Lowry O., Rosebrough H., Parr A., Randall R., Protein measurement with the Folin phenol reagent, J. Biol. Chem. 1951, 193,265-275). Amidolytic assays are performed by measuring the rate of hydrolysis of the synthetic substrate pyro-Glu-Gly-Arg-pNA, S-2444 (Claeson G., Friberger P., Knos M., Eriksson E., Methods for determination of pre-kallikrein in plasma, glandular kallikrein and urokinase, Haemostasis 1978; 7:76-78). Immunoadsorbent-amidolytic assay (IAA) is carried out as described by Corti A., Nolli ML., Cassani G., Differential detection of single-chain and two-chain urokinase type plasminogen activator by a new immunoadsorbent amidolytic assay (IAA), Throm Haemostas 1986, 56:407-10. The assay combines the selectivity of immunoassays with the specificity of enzyme activity assays exploiting both the antigenic and enzymatic properties of the two proteins. tcu-PA and scu-PA are selectively immunoadsorbed on the wells of a microtiter plate coated with the monoclonal antibody 5B4 and tested for enzymatic activity before and after activation by plasmin treatment.
(§2) To determine the kinetic parameters of the amidolytic activity, plasmin-activated u-PA's (4.5 nM) are incubated at different concentrations (0.03 - 0.3 mM) of pyro-Glu-Gly-Arg-p-nitroanilide (S-2444) in 0.1 M Tris Cl (pH 8.8), 50 mM NaCl and 0.1% bovine serum albumin at 37°C. The initial rate of p-nitroaniline release is determined photometrically at 405 nm. The linear increase of absorbance with time for the various concentrations of S-2444 is reported in a Lineweaver-Burk plot from which Km and Vmax are calculated by extrapolation of the curves obtained using a linear regression program.

The target of test [2] is plasmin-activated BPV-LB6-scu-PA (recombinant human uPA from BPV vector transfected murine LB6 cells) (Homo sapiens, UniProt P00749). The procedure: as §1, §2
For test [3], the target named is plasmin-activated urinary scu-PA (human urine tcu-PA, urokinase) (Homo sapiens, UniProt P00749). The procedure:
as §1, §2

Test [4] has as its target plasmin-activated A431 scu-PA (from untransformed human A431 cells) (Homo sapiens, UniProt P00749). The procedure: as §1, §2
Test [5] has as its target plasmin-activated RSV-A431-scu-PA (recombinant human uPA from RSV-uPA transfected A431 cells) (Homo sapiens, UniProt P00749). The procedure: as §1, §2
In test [6] the target is plasmin-activated RSV-LB6-scu-PA (3F11-scu-PA; recombinant human uPA from RSV-uPA transfected murine LB6 cells) (Homo sapiens, UniProt P00749). As to the method:
as §1, §2

The structures appear in SMILES notation. Square brackets hold non-standard residues; d marks the D form. Peptide text beside a SMILES is read from it. * marks the point of attachment. pNA = O=[N+]([O-])c1ccc(N*)cc1; pGlu = O=C1CC[C@@H](C(=O)O)N1

For the compound `N=C(N)NCCC[C@H](NC(=O)CNC(=O)[C@@H]1CCC(=O)N1)C(=O)Nc1ccc([N+](=O)[O-])cc1` [S-2444, pyro-Glu-Gly-Arg-p-nitroanilide] ([pGlu]-Gly-Arg-pNA), the Km was determined as 76 µM in test [1]; 78 µM in test [2]; 80 µM in test [3]; 72 µM in test [4]; 76 µM in test [5]; 69 µM in test [6]. The kcat in test [1] is recorded as 26 s⁻¹; in test [2] it was 26 s⁻¹; in test [3], 25 s⁻¹; in test [4], 23 s⁻¹; in test [5], 23 s⁻¹; in test [6], 24 s⁻¹.

Source of the values: EP0303028A1, “Method for preparing single chain urokinase” (GRUPPO LEPETIT S.p.A., priority 1987, dated 1989).
